Read-outs that look alike come from different tables or passages of the source.
Key:
rice plants = format: in vivo, rice variety: PTT1; conditions: 750 g/ha; for Yield (kg/plot): plot 9 m2, 120 DAS
Rhizoctonia solani = assay: field trial sheath blight on rice in Thailand, percentage disease; format: in vivo; conditions: 750 g/ha, 2 sprays at 7 day interval; for percentage of disease (%): location L1; for percentage of sheath blight disease (%): location L2
Description: A field trial was established to test the efficacy of different compositions for control of sheath blight (Rhizoctonia solani) on rice in Thailand at two locations: L1: Bang Kham, Sriprachan, Suphanburi; and L2: Don Pru, Sriprachan, Suphanburi. Disease inoculation was performed 14 days before 1st spray.
(§1) At location L1, experimental design was randomize complete block (RCB); number of different treatments: six as provided in Table 11; number of replications: 4; plot size: 6×5 m/plot; rice variety: PTT1; and spray volume: 312.5 L/ha. One treatment had 4 replications, with one replication having 10 samplings.
Data assessments included percentage of length (cm) of the symptom infected and length of the plant (cm) before 1st spray; before 2nd spray; 7 days after 2nd spray; at 2 weeks after 2nd spray; at 3 weeks after 2nd spray; and at 2 weeks before harvest.
The percentage disease was calculated as follows:
Disease (%)=[length of infection symptom (cm)/length of plant (cm)]×100
as §1, with “L2,” for “L1,”
Data assessments included percentage of length (cm) of the symptom infected and length of the plant (cm) before 1st spray; before 2nd spray; 7 days after 2nd spray; 2 weeks after 2nd spray; at 3 weeks after 2nd spray; and at 2 weeks before harvest.

SMILES: Cc1cccc2sc3nncn3c12 [Tricyclazole]
- Yield (kg/ha) (rice plants; location L1): 5861.11 kg/ha
- Yield (kg/rai) (rice plants; location L1): 937.78 kg/rai
- Yield (kg/plot) (rice plants; location L1): 5.28 kg/plot
- Yield (kg/ha) (rice plants; location L2): 6638.89 ab kg/ha
- Yield (kg/rai) (rice plants; location L2): 1062.22 kg/rai
- Yield (kg/plot) (rice plants; location L2): 5.98 kg/plot
- percentage of disease (%) (Rhizoctonia solani; 2 WBH (106 DAS)): 35.63 b %
- percentage of disease (%) (Rhizoctonia solani; 7 DAA#2 (89 DAS)): 35.66 bc %
- percentage of disease (%) (Rhizoctonia solani; 14 DAA#2 (96 DAS)): 37.90 c %
- percentage of disease (%) (Rhizoctonia solani; 21 DAA#2 (103 DAS)): 35.89 c %
- percentage of disease (%) (Rhizoctonia solani; BA#1 (before 1st spray, 75 DAS)): 22.57 a %
- percentage of disease (%) (Rhizoctonia solani; BA#2 (before 2nd spray, 82 DAS)): 40.05 bc %
- percentage of sheath blight disease (%) (Rhizoctonia solani; 2 WBH (106 DAS)): 39.11 b %
- percentage of sheath blight disease (%) (Rhizoctonia solani; 7 DAA#2 (84 DAS)): 37.90 bc %
- percentage of sheath blight disease (%) (Rhizoctonia solani; 14 DAA#2 (91 DAS)): 38.71 d %
- percentage of sheath blight disease (%) (Rhizoctonia solani; 21 DAA#2 (98 DAS)): 39.75 d %
- percentage of sheath blight disease (%) (Rhizoctonia solani; BA#1 (before 1st spray, 70 DAS)): 26.10 a %
- percentage of sheath blight disease (%) (Rhizoctonia solani; BA#2 (before 2nd spray, 77 DAS)): 32.67 b %

Source: US20240057596A1 (priority 2021, published 2024)
